What was measured:
[1] = biological target: T1, Mineralocorticoid receptor (Homo sapiens, UniProt P08235); assay: Inhibitory activity against human Mineralocorticoid receptor
T1 sequence (P08235 whole entry): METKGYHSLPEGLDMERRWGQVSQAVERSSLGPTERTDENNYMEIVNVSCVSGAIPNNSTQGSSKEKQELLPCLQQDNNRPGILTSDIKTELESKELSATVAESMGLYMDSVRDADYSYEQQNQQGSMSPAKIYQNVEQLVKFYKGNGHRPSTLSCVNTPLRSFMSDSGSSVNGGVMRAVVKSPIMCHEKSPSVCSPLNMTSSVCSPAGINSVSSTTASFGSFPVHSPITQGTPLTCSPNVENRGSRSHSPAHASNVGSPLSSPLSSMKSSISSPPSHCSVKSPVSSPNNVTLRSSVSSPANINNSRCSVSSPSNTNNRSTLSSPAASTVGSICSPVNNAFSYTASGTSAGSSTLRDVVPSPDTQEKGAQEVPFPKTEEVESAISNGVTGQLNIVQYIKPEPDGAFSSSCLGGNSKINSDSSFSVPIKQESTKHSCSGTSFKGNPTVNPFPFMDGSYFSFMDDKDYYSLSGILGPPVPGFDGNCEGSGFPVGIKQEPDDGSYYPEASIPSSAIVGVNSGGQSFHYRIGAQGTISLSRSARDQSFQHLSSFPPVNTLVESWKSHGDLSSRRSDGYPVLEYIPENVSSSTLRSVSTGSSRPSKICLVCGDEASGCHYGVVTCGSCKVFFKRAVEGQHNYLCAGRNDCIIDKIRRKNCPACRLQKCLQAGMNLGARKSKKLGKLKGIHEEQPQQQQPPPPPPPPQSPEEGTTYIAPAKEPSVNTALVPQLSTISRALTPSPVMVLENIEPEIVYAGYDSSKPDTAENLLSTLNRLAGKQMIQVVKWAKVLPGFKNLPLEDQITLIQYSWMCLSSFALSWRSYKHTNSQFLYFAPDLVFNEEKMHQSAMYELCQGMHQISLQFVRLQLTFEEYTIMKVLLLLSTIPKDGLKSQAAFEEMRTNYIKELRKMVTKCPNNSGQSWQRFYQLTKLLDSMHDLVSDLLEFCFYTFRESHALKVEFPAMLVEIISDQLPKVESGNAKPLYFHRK

Progesterone receptor [2] = biological target: T2, Progesterone receptor (Homo sapiens, UniProt P06401); assay: Agonistic activity against human progesterone receptor in T47D breast cancer cells; type: functional, cell-based
T2 sequence (P06401 whole entry): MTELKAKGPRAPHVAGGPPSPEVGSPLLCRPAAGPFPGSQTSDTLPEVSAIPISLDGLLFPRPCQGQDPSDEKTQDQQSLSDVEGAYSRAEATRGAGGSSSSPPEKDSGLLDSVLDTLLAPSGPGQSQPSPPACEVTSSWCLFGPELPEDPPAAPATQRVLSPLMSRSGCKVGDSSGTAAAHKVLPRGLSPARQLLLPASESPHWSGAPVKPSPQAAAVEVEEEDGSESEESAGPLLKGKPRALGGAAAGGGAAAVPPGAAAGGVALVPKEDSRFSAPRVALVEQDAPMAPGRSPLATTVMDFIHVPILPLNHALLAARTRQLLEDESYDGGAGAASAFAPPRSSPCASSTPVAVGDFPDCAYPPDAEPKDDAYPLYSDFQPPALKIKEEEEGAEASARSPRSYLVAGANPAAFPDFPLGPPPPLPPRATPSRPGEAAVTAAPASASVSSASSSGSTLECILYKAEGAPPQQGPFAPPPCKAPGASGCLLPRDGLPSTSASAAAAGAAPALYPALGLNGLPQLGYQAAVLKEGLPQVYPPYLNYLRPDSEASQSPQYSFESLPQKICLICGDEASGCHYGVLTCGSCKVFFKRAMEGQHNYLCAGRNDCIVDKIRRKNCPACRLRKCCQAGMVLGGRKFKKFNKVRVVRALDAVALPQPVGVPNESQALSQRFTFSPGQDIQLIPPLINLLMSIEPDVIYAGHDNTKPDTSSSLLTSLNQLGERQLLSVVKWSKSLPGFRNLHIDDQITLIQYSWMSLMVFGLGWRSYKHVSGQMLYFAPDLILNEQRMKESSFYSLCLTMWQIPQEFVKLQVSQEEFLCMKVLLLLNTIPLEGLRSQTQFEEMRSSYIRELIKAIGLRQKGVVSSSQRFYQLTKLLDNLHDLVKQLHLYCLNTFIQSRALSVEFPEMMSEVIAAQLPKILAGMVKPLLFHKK

[3] = biological target: T3, Progesterone receptor (Homo sapiens) (UniProt P06401); assay: Percent agonistic effect towards human progesterone receptor in CV-1 cells; type: functional, cell-based
T3 sequence (whole entry): T2 sequence (P06401 whole entry)

[4] = biological target: T3, Progesterone receptor (Homo sapiens); assay: Percent agonistic effect towards human progesterone receptor in T47D breast cancer cells; type: functional, cell-based
Progesterone receptor [5] = biological target: T2, Progesterone receptor; assay: Binding affinity towards human progesterone receptor A isoform using progesterone as radioligand
Homo sapiens [6] = species: Homo sapiens; assay: Relative potency for human androgen and progesterone receptors
Homo sapiens [7] = species: Homo sapiens; assay: Relative potency for human glucocorticoid and progesterone receptors
Homo sapiens [8] = species: Homo sapiens; assay: Relative potency for human mineralocorticoid and progesterone receptors
Estrogen receptor = Estrogen receptor (Homo sapiens, UniProt Q92731+P03372)
Description: Inhibition of binding to human estrogen receptor

Androgen receptor = biological target: T4, Androgen receptor (Homo sapiens, UniProt P10275); assay: biochemical
T4 sequence (P10275 whole entry): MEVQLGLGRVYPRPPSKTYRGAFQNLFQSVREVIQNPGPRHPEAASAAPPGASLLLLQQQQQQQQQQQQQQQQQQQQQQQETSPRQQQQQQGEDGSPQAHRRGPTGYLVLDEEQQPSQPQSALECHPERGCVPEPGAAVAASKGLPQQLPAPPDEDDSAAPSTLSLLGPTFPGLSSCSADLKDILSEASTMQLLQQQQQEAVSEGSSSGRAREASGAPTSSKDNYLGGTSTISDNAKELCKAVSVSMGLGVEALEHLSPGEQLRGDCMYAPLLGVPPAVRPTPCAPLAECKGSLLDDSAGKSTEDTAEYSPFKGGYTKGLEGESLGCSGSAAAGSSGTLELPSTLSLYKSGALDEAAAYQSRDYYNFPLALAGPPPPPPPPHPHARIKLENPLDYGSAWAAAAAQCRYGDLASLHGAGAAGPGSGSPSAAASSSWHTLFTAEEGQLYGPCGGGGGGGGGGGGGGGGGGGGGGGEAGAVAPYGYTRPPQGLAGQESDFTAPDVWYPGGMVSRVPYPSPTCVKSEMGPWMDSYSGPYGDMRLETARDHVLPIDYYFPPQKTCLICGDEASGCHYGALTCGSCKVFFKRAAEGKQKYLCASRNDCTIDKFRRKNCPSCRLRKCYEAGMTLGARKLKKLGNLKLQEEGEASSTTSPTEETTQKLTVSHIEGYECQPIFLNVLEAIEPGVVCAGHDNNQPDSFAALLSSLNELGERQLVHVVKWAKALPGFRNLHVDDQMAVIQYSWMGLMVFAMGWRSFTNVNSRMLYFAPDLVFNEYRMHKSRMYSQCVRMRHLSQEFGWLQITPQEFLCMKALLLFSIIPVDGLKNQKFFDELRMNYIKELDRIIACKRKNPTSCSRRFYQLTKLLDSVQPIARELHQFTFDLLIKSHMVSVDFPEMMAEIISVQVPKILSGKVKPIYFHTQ
Description: Inhibition of DHT binding to human androgen receptor expressed in baculovirus SF-12 cells

| SMILES | IC50 [1] | EC50 (Progesterone receptor [2]) | Efficacy [3] | Efficacy [4] | Ki (Progesterone receptor [5]) | Ratio (Homo sapiens [6]) | Ratio (Homo sapiens [7]) | Ratio (Homo sapiens [8]) | IC50 (Estrogen receptor) | Ki (Androgen receptor) |
| --- | --- | --- | --- | --- | --- | --- | --- | --- | --- | --- |
| CC1=CC(C)(C)Nc2ccc3c(c21)/C(=C/c1ccncc1C)Oc1ccc(F)cc1-3 | 363 nM | 4.6 nM | 138% | 46% | 1.4 nM | > 1000 | 54 | 511 | 1149 nM | > 1000 nM |
| CC1=CC(C)(C)Nc2ccc3c(c21)/C(=C/c1ccsc1)Oc1ccc(F)cc1-3 | 1900 nM | 5.5 nM | 174% | 48% | 1.3 nM | 303 | 141 | > 1000 | 3488 nM | 669 nM |
| CCc1ccccc1/C=C1\Oc2ccc(F)cc2-c2ccc3c(c21)C(C)=CC(C)(C)N3 | 334 nM | 18 nM | 161% | 51% | 2.3 nM | > 1000 | 39 | 167 | – | 1590 nM |
| CC1=CC(C)(C)Nc2ccc3c(c21)/C(=C/c1ccccc1)Oc1c(F)cccc1-3 | – | 11 nM | 171% | 45% | 0.61 nM | 429 | 119 | > 1000 | – | 1460 nM |
| CC1=CC(C)(C)Nc2ccc3c(c21)/C(=C/c1ccccc1C)Oc1c(F)cccc1-3 | 1850 nM | 9 nM | 163% | 43% | 1.5 nM | > 1000 | 212 | > 1000 | 2443 nM | 960 nM |

From ChEMBL document CHEMBL1145087 (J Med Chem, 2003)
